Test results published in US10233184B2, “7-substituted sulfonimidoylpurinone compounds and derivatives for the treatment and prophylaxis of virus infection” (Hoffmann-La Roche Inc., priority 2016, dated 2019).
≈ marks a conversion by molar mass, not a printed value.

What was measured:
LYSA solubility study = format: physicochemical; conditions: phosphate buffer, pH 6.5, aqueous buffer, thermodynamic from solid, 0.05M phosphate buffer pH 6.5, read-out: LYSA of Prodrugs
Procedure: LYSA study is used to determine the aqueous solubility of tested compounds. Samples were prepared in duplicate from 10 mM DMSO stock solution. After evaporation of DMSO with a centrifugal vacuum evaporator, the compounds were dissolved in 0.05M phosphate buffer (pH 6.5), stirred for one hour and shaken for two hours. After one night, the solutions were filtered using a microtiter filter plate. Then the filtrate and its 1/10 dilution were analyzed by HPLC-UV. […] The results were in μg/mL. In case the percentage of sample measured in solution after evaporation divided by the calculated maximum of sample amount was bigger than 80%, the solubility was reported as bigger than this value.

human TLR7 = target: T1, human TLR7 (Homo sapiens, UniProt Q9NYK1); experiment: HEK293-Blue-hTLR-7 cells assay (SEAP reporter); format: cell-based; conditions: for Ratio (EC50(prodrug)/EC50(active form)): EC50 of prodrug over EC50 of corresponding active form; for EC50: HEK293-Blue-hTLR-7 cells, SEAP reporter, 20 hrs, prodrug, read-out: HEK293-hTLR-7 EC50 (Prodrug)
T1 sequence (Q9NYK1 27-1049): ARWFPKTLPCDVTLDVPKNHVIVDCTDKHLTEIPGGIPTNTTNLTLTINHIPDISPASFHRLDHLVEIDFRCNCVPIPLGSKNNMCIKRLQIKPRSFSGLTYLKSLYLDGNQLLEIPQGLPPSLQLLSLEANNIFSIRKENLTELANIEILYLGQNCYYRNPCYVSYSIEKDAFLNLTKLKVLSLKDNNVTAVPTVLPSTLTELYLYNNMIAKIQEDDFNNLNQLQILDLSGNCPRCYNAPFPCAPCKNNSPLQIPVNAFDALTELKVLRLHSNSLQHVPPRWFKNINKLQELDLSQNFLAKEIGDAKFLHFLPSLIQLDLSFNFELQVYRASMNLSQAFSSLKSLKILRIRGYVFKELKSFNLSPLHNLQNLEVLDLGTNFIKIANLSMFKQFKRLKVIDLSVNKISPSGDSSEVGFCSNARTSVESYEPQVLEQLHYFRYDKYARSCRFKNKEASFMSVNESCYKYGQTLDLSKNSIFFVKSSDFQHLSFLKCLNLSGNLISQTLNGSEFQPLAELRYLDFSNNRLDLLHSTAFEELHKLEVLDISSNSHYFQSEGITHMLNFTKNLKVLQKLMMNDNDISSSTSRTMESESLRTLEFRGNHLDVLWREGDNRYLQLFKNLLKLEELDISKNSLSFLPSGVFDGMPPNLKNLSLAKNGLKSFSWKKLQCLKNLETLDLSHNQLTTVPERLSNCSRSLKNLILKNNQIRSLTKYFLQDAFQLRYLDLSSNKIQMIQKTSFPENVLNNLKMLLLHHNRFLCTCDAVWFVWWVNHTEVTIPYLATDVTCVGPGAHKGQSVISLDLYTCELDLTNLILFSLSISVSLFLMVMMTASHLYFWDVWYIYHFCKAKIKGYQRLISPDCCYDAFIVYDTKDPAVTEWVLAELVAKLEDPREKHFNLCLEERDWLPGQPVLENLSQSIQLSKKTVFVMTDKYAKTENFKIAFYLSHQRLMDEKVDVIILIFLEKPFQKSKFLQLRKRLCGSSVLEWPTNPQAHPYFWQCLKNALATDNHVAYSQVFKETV
Source text: HEK293-Blue-hTLR-7 Cells Assay:
A stable HEK293-Blue-hTLR-7 cell line was purchased from InvivoGen (Cat.#: hkb-htlr7, San Diego, Calif., USA). These cells were designed for studying the stimulation of human TLR7 by monitoring the activation of NF-κB. A SEAP (secreted embryonic alkaline phosphatase) reporter gene was placed under the control of the IFN-β minimal promoter fused to five NF-κB and AP-1-binding sites. The SEAP was induced by activating NF-κB and AP-1 via stimulating HEK-Blue hTLR7 cells with TLR7 ligands. Therefore the reporter expression was regulated by the NF-κB promoter upon stimulation of human TLR7 for 20 hrs. The cell culture supernatant SEAP reporter activity was determined using QUANTI-Blue™ kit (Cat.#: rep-qbl, Invivogen, San Diego, Calif., USA) at a wavelength of 640 nm, a detection medium that turns purple or blue in the presence of alkaline phosphatase.
HEK293-Blue-hTLR7 cells were incubated at a density of 250,000˜450,000 cells/mL in a volume of 180 μL in a 96-well plate in Dulbecco's Modified Eagle's medium (DMEM) containing 4.5 g/L glucose, 50 U/mL penicillin, […], […], 2 mM L-glutamine, 10% (V/V) heat-inactivated fetal bovine serum for 24 hrs. Then the HEK293-Blue-hTLR-7 cells were incubated with addition of 20 μL test compound in a serial dilution in the presence of final DMSO at 1% and perform incubation under 37° C. in a CO2 incubator for 20 hrs. Then 20 μL of the supernatant from each well was incubated with 180 μL Quanti-blue substrate solution at 37° C. for 2 hrs and the absorbance was read at 620˜655 nm using a spectrophotometer. The signalling pathway that TLR7 activation leads to downstream NF-κB activation has been widely accepted, and therefore similar reporter assay was also widely used for evaluating TLR7 agonist (Tsuneyasu Kaisho and Takashi Tanaka, Trends in Immunology, Volume 29, Issue 7, July 2008, […]; Hiroaki Hemmi et al, Nature Immunology 3, 196-200 (2002)).
The Compounds and Examples of the present invention were tested in HEK293-hTLR-7 assay for their TLR7 agonism activity as described herein and results are listed in Table 1. […] The calculated ratio of EC50(prodrug)/EC50(active form) were within the range from 32 to about 7600.

Row | SMILES | solubility thermodynamic (LYSA solubility study) | Ratio (EC50(prodrug)/EC50(active form)) (human TLR7) | EC50 (human TLR7)
1 | CCCS(=N)(=O)c1nc(N)c2c(n1)n(Cc1ccccc1)c(=O)n2C(=O)N(C)CCOC (stereo not shown) [Example 2, 6-Amino-9-benzyl-N-(2-methoxyethyl)-N-methyl-8-oxo-2-(propylsulfonimidoyl)purine-7-carboxamide] | 615 µg/mL (≈ 1330 µM) | 372.1 | 32 µM
2 | CCCN(CC)C(=O)n1c(=O)n(Cc2ccccc2)c2nc(S(=N)(=O)CCC)nc(N)c21 (stereo not shown) [Example 3, 6-Amino-9-benzyl-N-ethyl-8-oxo-N-propyl-2-(propylsulfonimidoyl)purine-7-carboxamide] | 240 µg/mL (≈ 522 µM) |  | 15.1 µM
3 | CCCS(=N)(=O)c1nc(N)c2c(n1)n(Cc1ccccc1)c(=O)n2C(=O)N1CCC(N2CCCCC2)CC1 (stereo not shown) [Example 4, 6-Amino-9-benzyl-7-[4-(1-piperidyl)piperidine-1-carbonyl]-2-(propylsulfonimidoyl)purin-8-one] | 695 µg/mL (≈ 1290 µM) | 353.8 | 23 µM
4 | CCCS(=N)(=O)c1nc(N)c2c(n1)n(Cc1ccccc1)c(=O)n2C(=O)N(CC)CCOC (stereo not shown) [Example 5, 6-Amino-9-benzyl-N-ethyl-N-(2-methoxyethyl)-8-oxo-2-(propylsulfonimidoyl)purine-7-carboxamide] | > 595 µg/mL | 630.8 | 41 µM
5 | CCCCN(CC)C(=O)n1c(=O)n(Cc2ccccc2)c2nc(S(=N)(=O)CCC)nc(N)c21 (stereo not shown) [Example 6, 6-Amino-9-benzyl-N-butyl-N-ethyl-8-oxo-2-(propylsulfonimidoyl)purine-7-carboxamide] | 140 µg/mL (≈ 296 µM) | 1266.2 | 82.3 µM
6 | CCCN(CCOC)C(=O)n1c(=O)n(Cc2ccccc2)c2nc(S(=N)(=O)CCC)nc(N)c21 (stereo not shown) [Example 7, 6-Amino-9-benzyl-N-(2-methoxyethyl)-8-oxo-N-propyl-2-(propylsulfonimidoyl)purine-7-carboxamide] | 615 µg/mL (≈ 1260 µM) | 306.2 | 19.9 µM
7 | CCCS(=N)(=O)c1nc(N)c2c(n1)n(Cc1ccccc1)c(=O)n2C(=O)N(CCOC)CCOC (stereo not shown) [Example 8, 6-Amino-9-benzyl-N,N-bis(2-methoxyethyl)-8-oxo-2-(propylsulfonimidoyl)purine-7-carboxamide] | 620 µg/mL (≈ 1230 µM) | 32.3 | 2.1 µM
8 | CCCS(=N)(=O)c1nc(N)c2c(n1)n(Cc1ccccc1)c(=O)n2C(=O)N1CCC1 (stereo not shown) [Example 9, 6-Amino-7-(azetidine-1-carbonyl)-9-benzyl-2-(propylsulfonimidoyl)purin-8-one] | > 520 µg/mL | 295.4 | 19.2 µM
9 | CCCS(=N)(=O)c1nc(N)c2c(n1)n(Cc1ccccc1)c(=O)n2C(=O)N(C)C(C)C (stereo not shown) [Example 10, 6-Amino-9-benzyl-N-isopropyl-N-methyl-8-oxo-2-(propylsulfonimidoyl)purine-7-carboxamide] | 120 µg/mL (≈ 269 µM) | 1053.8 | 68.5 µM
10 | CCCS(=N)(=O)c1nc(N)c2c(n1)n(Cc1ccccc1)c(=O)n2C(=O)N1CCN(C)CC1 (stereo not shown) [Example 11, 6-Amino-9-benzyl-7-(4-methylpiperazine-1-carbonyl)-2-(propylsulfonimidoyl)purin-8-one] | > 618 µg/mL | 86.2 | 5.6 µM
11 | CCCS(=N)(=O)c1nc(N)c2c(n1)n(Cc1ccccc1)c(=O)n2C(=O)N(C)CCCOC (stereo not shown) [Example 12, 6-Amino-9-benzyl-N-(3-methoxypropyl)-N-methyl-8-oxo-2-(propylsulfonimidoyl)purine-7-carboxamide] | 120 µg/mL (≈ 252 µM) | 675.4 | 43.9 µM
12 | CCCS(=N)(=O)c1nc(N)c2c(n1)n(Cc1ccccc1)c(=O)n2C(=O)N(C)CC(C)C (stereo not shown) [Example 13, 6-Amino-9-benzyl-N-isobutyl-N-methyl-8-oxo-2-(propylsulfonimidoyl)purine-7-carboxamide] | 155 µg/mL (≈ 337 µM) | 1030.8 | 67 µM
13 | CCCS(=N)(=O)c1nc(N)c2c(n1)n(Cc1ccccc1)c(=O)n2C(=O)N(C)CC(=O)OCC (stereo not shown) [Example 14, Ethyl 2-[[6-amino-9-benzyl-8-oxo-2-(propylsulfonimidoyl)purine-7-carbonyl]-methyl-amino]acetate] | 225 µg/mL (≈ 460 µM) | 36.9 | 2.4 µM
14 | CCCS(=N)(=O)c1nc(N)c2c(n1)n(Cc1ccccc1)c(=O)n2C(=O)N(C)CCC(=O)OCC (stereo not shown) [Example 15, Ethyl 3-[[6-amino-9-benzyl-8-oxo-2-(propylsulfonimidoyl)purine-7-carbonyl]-methyl-amino]propanoate] | 405 µg/mL (≈ 804 µM) | 7600 | 494 µM
15 | CCCS(=N)(=O)c1nc(N)c2c(n1)n(Cc1ccccc1)c(=O)n2C(=O)N(C)CCC(=O)OC(C)(C)C (stereo not shown) [Example 16, tert-Butyl 3-[[6-amino-9-benzyl-8-oxo-2-(propylsulfonimidoyl)purine-7-carbonyl]-methyl-amino]propanoate] | 205 µg/mL (≈ 386 µM) | 493.8 | 32.1 µM
16 | CCCS(=N)(=O)c1nc(N)c2c(n1)n(Cc1ccccc1)c(=O)n2C(=O)N(C)CCN(C)C(C)=O (stereo not shown) [Example 25, N-[2-[Acetyl(methyl)amino]ethyl]-6-amino-9-benzyl-N-methyl-8-oxo-2-(propylsulfonimidoyl)purine-7-carboxamide] | > 670 µg/mL | 372.3 | 24.2 µM
17 | CCCS(=N)(=O)c1nc(N)c2c(n1)n(Cc1ccccc1)c(=O)n2C(=O)N(C)CCN(C)C(=O)OC (stereo not shown) [Example 26, Methyl N-[2-[[6-amino-9-benzyl-8-oxo-2-(propylsulfonimidoyl)purine-7-carbonyl]-methyl-amino]ethyl]-N-methyl-carbamate] | > 690 µg/mL | 206.2 | 13.4 µM
18 | CCCS(=N)(=O)c1nc(N)c2c(n1)n(Cc1ccccc1)c(=O)n2C(=O)N(C)CCN(C)C(=O)OC(C)(C)C (stereo not shown) [Example 27, tert-Butyl N-[2-[[6-amino-9-benzyl-8-oxo-2-(propylsulfonimidoyl)purine-7-carbonyl]-methyl-amino]ethyl]-N-methyl-carbamate] | > 380 µg/mL |  | 31.7 µM
